Consider 7 compounds from PubChem BioAssay AID256 (DTP/NCI, 2004).

Values joined by “and” are separate entries in the source; they are usually repeats but may differ in a detail not shown here. Identical values can stand only once. Toxic doses and inconclusive results are not listed.

The subject of this assay is CD2F1 mice, L1210 leukemia ip, survival T/C. Briefly: NCI In Vivo Anticancer Drug Screen. Data for tumor model L1210 Leukemia (intraperitoneal) in CD2F1 (CDF1) mice. The settings on record: higher = longer survival. In outline: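 Antitumor effect is scored in animals hosting a serially transplanted tumor. Values compare compound-dosed animals against vehicle-only controls as a simple quotient.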

Where [1] appears, read: endpoint: mean survival time, dose: 100.0 mg/kg/injection, schedule: Q04DX003 (ip), vehicle: Klucel (hydroxypropylcellulose) (HPC).
The mark [2] stands for this setting: endpoint: mean survival time, dose: 200.0 mg/kg/injection, schedule: Q04DX003 (ip), vehicle: Klucel (hydroxypropylcellulose) (HPC).
[3] abbreviates: endpoint: mean survival time, dose: 400.0 mg/kg/injection, schedule: Q04DX003 (ip), vehicle: Klucel (hydroxypropylcellulose) (HPC).

Take `COc1cc(NCc2ccc3nc(N)nc(N)c3c2C)cc(OC)c1OC`: the T/C reads like this: (endpoint: mean survival time, dose: 0.62 mg/kg/injection, schedule: Q01DX009 (ip), vehicle: sodium bicarbonate) 102 % of control; (endpoint: mean survival time, dose: 1.25 mg/kg/injection, schedule: Q01DX009 (ip), vehicle: sodium bicarbonate) 102 % of control and 106 % of control; (endpoint: mean survival time, dose: 1.87 mg/kg/injection, schedule: Q04DX003 (ip), vehicle: sodium bicarbonate) 106 % of control; (endpoint: mean survival time, dose: 2.5 mg/kg/injection, schedule: Q01DX009 (ip), vehicle: sodium bicarbonate) 110 % of control and 112 % of control; (endpoint: mean survival time, dose: 3.11 mg/kg/injection, schedule: Q01DX009 (ip), vehicle: other) 118 % of control; (endpoint: mean survival time, dose: 3.75 mg/kg/injection, schedule: Q04DX003 (ip), vehicle: sodium bicarbonate) 96 % of control. Further, the T/C was 121 % of control and 110 % of control (endpoint: mean survival time, dose: 5.0 mg/kg/injection, schedule: Q01DX009 (ip), vehicle: sodium bicarbonate); 121 % of control (endpoint: mean survival time, dose: 5.18 mg/kg/injection, schedule: Q01DX009 (ip), vehicle: other); 122 % of control (endpoint: mean survival time, dose: 5.27 mg/kg/injection, schedule: Q01DX009 (ip), vehicle: Klucel (hydroxypropylcellulose) (HPC)); 117 % of control (endpoint: mean survival time, dose: 7.05 mg/kg/injection, schedule: Q01DX009 (ip), vehicle: water); 110 % of control (endpoint: mean survival time, dose: 7.5 mg/kg/injection, schedule: Q04DX003 (ip), vehicle: sodium bicarbonate); 123 % of control (endpoint: mean survival time, dose: 10.5 mg/kg/injection, schedule: Q01DX009 (ip), vehicle: water). The T/C (endpoint: mean survival time, dose: 15.0 mg/kg/injection, schedule: Q04DX003 (ip), vehicle: sodium bicarbonate) is 112 % of control; the T/C (endpoint: mean survival time, dose: 17.8 mg/kg/injection, schedule: Q01DX009 (ip), vehicle: Klucel (hydroxypropylcellulose) (HPC)) is 174 % of control; the T/C (endpoint: mean survival time, dose: 20.0 mg/kg/injection, schedule: Q01DX009 (ip), vehicle: sodium bicarbonate) is 156 % of control and 160 % of control; the T/C (endpoint: mean survival time, dose: 24.0 mg/kg/injection, schedule: Q01DX009 (ip), vehicle: other) is 152 % of control; the T/C (endpoint: mean survival time, dose: 26.7 mg/kg/injection, schedule: Q01DX009 (ip), vehicle: Klucel (hydroxypropylcellulose) (HPC)) was 191 % of control; the T/C (endpoint: mean survival time, dose: 30.0 mg/kg/injection, schedule: Q04DX003 (ip), vehicle: sodium bicarbonate) is 114 % of control. Further, the T/C runs as follows: (endpoint: mean survival time, dose: 40.0 mg/kg/injection, schedule: Q01DX009 (ip), vehicle: Klucel (hydroxypropylcellulose) (HPC)) 216 % of control; (endpoint: mean survival time, dose: 40.0 mg/kg/injection, schedule: Q01DX009 (ip), vehicle: other) 167 % of control; (endpoint: mean survival time, dose: 40.0 mg/kg/injection, schedule: Q01DX009 (ip), vehicle: sodium bicarbonate) 110 % of control; (endpoint: mean survival time, dose: 60.0 mg/kg/injection, schedule: Q01DX009 (ip), vehicle: Klucel (hydroxypropylcellulose) (HPC)) 122 % of control; (endpoint: mean survival time, dose: 80.0 mg/kg/injection, schedule: Q01DX009 (ip), vehicle: water) 151 % of control; (endpoint: mean survival time, dose: 90.0 mg/kg/injection, schedule: Q01DX009 (ip), vehicle: Klucel (hydroxypropylcellulose) (HPC)) 116 % of control. Besides, the T/C by setting is: (endpoint: median survival time, dose: 2.5 mg/kg/injection, schedule: Q01DX009 (ip), vehicle: sodium bicarbonate) 109 % of control; (endpoint: median survival time, dose: 5.0 mg/kg/injection, schedule: Q01DX009 (ip), vehicle: Klucel (hydroxypropylcellulose) (HPC)) 119 % of control; (endpoint: median survival time, dose: 5.0 mg/kg/injection, schedule: Q01DX009 (ip), vehicle: sodium bicarbonate) 117 % of control and 124 % of control; (endpoint: median survival time, dose: 6.25 mg/kg/injection, schedule: Q01DX009 (ip), vehicle: water) 124 % of control; (endpoint: median survival time, dose: 7.5 mg/kg/injection, schedule: Q01DX005 (ip), vehicle: Klucel (hydroxypropylcellulose) (HPC)) 150 % of control; (endpoint: median survival time, dose: 10.0 mg/kg/injection, schedule: Q01DX009 (ip), vehicle: Klucel (hydroxypropylcellulose) (HPC)) 151 % of control. The T/C by setting is: (endpoint: median survival time, dose: 15.0 mg/kg/injection, schedule: Q01DX005 (ip), vehicle: Klucel (hydroxypropylcellulose) (HPC)) 167 % of control; (endpoint: median survival time, dose: 18.0 mg/kg/injection, schedule: Q01DX009 (ip), vehicle: distilled water + Tween-80) 153 % of control; (endpoint: median survival time, dose: 20.0 mg/kg/injection, schedule: Q01DX009 (ip), vehicle: Klucel (hydroxypropylcellulose) (HPC)) 172 % of control; (endpoint: median survival time, dose: 20.0 mg/kg/injection, schedule: Q01DX009 (ip), vehicle: sodium bicarbonate) 152 % of control and 157 % of control; (endpoint: median survival time, dose: 25.0 mg/kg/injection, schedule: Q01DX009 (ip), vehicle: water) 157 % of control; (endpoint: median survival time, dose: 27.0 mg/kg/injection, schedule: Q01DX009 (ip), vehicle: distilled water + Tween-80) 165 % of control. Moreover, the T/C is 166 % of control and 175 % of control (endpoint: median survival time, dose: 30.0 mg/kg/injection, schedule: Q01DX005 (ip), vehicle: Klucel (hydroxypropylcellulose) (HPC)); 158 % of control and 168 % of control (endpoint: median survival time, dose: 40.0 mg/kg/injection, schedule: Q01DX009 (ip), vehicle: distilled water + Tween-80); 168 % of control and 181 % of control (endpoint: median survival time, dose: 40.0 mg/kg/injection, schedule: Q01DX009 (ip), vehicle: sodium bicarbonate); 154 % of control (endpoint: median survival time, dose: 44.0 mg/kg/injection, schedule: Q01DX009 (ip), vehicle: water); 157 % of control and 165 % of control (endpoint: median survival time, dose: 50.0 mg/kg/injection, schedule: Q01DX009 (ip), vehicle: water); 184 % of control and 185 % of control (endpoint: median survival time, dose: 60.0 mg/kg/injection, schedule: Q01DX005 (ip), vehicle: Klucel (hydroxypropylcellulose) (HPC)). The T/C is 160 % of control and 182 % of control (endpoint: median survival time, dose: 60.0 mg/kg/injection, schedule: Q01DX009 (ip), vehicle: distilled water + Tween-80); 112 % of control (endpoint: median survival time, dose: 80.0 mg/kg/injection, schedule: Q01DX009 (ip), vehicle: Klucel (hydroxypropylcellulose) (HPC)); 118 % of control (endpoint: median survival time, dose: 90.0 mg/kg/injection, schedule: Q01DX009 (ip), vehicle: distilled water + Tween-80); 173 % of control and 184 % of control (endpoint: median survival time, dose: 100.0 mg/kg/injection, schedule: Q01DX009 (ip), vehicle: water); 236 % of control (endpoint: median survival time, dose: 120.0 mg/kg/injection, schedule: Q01DX005 (ip), vehicle: Klucel (hydroxypropylcellulose) (HPC)).

Take `CC(CC(O)(C(F)(F)F)C(F)(F)F)OC(=O)Nc1ccc(Cl)c(Cl)c1` (configuration not stated): the T/C under setting [1] was 96 % of control, the T/C under setting [2] is 101 % of control and the T/C under setting [3] is 101 % of control.

Take `Cn1/c2cc/c1=C(\c1ccc(S(=O)(=O)O)cc1)c1ccc([n-]1)/C(c1ccc(S(=O)(=O)O)cc1)=c1/cc/c([nH]1)=C(\c1ccc(S(=O)(=O)O)cc1)c1ccc([n-]1)/C=2c1ccc(S(=O)(=O)O)cc1.O.O=S(=O)(O)C(F)(F)F.[Cu+2]`: the T/C reads like this: (endpoint: median survival time, dose: 6.25 mg/kg/injection, schedule: Q01DX009 (ip), vehicle: saline) 101 % of control; (endpoint: median survival time, dose: 12.5 mg/kg/injection, schedule: Q01DX009 (ip), vehicle: saline) 104 % of control; (endpoint: median survival time, dose: 25.0 mg/kg/injection, schedule: Q01DX009 (ip), vehicle: saline) 103 % of control; (endpoint: median survival time, dose: 50.0 mg/kg/injection, schedule: Q01DX009 (ip), vehicle: saline) 112 % of control; (endpoint: median survival time, dose: 100.0 mg/kg/injection, schedule: Q01DX009 (ip), vehicle: saline) 103 % of control.

Regarding `CSc1nc(=O)[nH]nc1Sc1ccccc1`, the T/C by setting is: (endpoint: mean survival time, dose: 75.0 mg/kg/injection, schedule: Q01DX001 (ip), vehicle: saline) 102 % of control; (endpoint: mean survival time, dose: 150.0 mg/kg/injection, schedule: Q01DX001 (ip), vehicle: saline) 101 % of control.

On to `NC(CS)=NCC12CC3CC(CC(C3)C1)C2`, for which the T/C (endpoint: mean survival time, dose: 12.5 mg/kg/injection, schedule: Q01DX001 (ip), vehicle: Klucel (hydroxypropylcellulose) (HPC)) is 92 % of control; the T/C (endpoint: mean survival time, dose: 25.0 mg/kg/injection, schedule: Q01DX001 (ip), vehicle: Klucel (hydroxypropylcellulose) (HPC)) was 94 % of control; the T/C (endpoint: mean survival time, dose: 50.0 mg/kg/injection, schedule: Q01DX001 (ip), vehicle: Klucel (hydroxypropylcellulose) (HPC)) was 101 % of control.

Regarding `Cc1ccc(O[Si](C)(C)C)cc1`, the T/C (endpoint: mean survival time, dose: 100.0 mg/kg/injection, schedule: Q01DX009 (ip), vehicle: saline with Tween-80) was 100 % of control; the T/C (endpoint: mean survival time, dose: 100.0 mg/kg/injection, schedule: Q04DX003 (ip), vehicle: saline with Tween-80) is 103 % of control; the T/C (endpoint: mean survival time, dose: 200.0 mg/kg/injection, schedule: Q04DX003 (ip), vehicle: saline with Tween-80) is 87 % of control; the T/C (endpoint: mean survival time, dose: 400.0 mg/kg/injection, schedule: Q04DX003 (ip), vehicle: saline with Tween-80) is 89 % of control.

As to `CC(C)C1CCC(C)C(C(O)(C(F)(F)F)C(F)(F)F)C1=O` (configuration not stated), the T/C is 96 % of control under setting [1], 95 % of control under setting [2] and 96 % of control under setting [3].
